Source: PubChem BioAssay (NCI)
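Dose response: 5 concentrations. Exposure: 48 h. Format: 96-well plates. Endpoint: linear interpolation; highest concentration if not reached. At the TGI there is no net growth.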

Legend:
Test in all cases: NCI-60 cell line screen, 48 h
LOX IMVI melanoma = tested on: LOX IMVI melanoma
HCT-116 colon = tested on: HCT-116 colon
HT29 colon = tested on: HT29 colon
HCT-15 colon = tested on: HCT-15 colon
BT-549 breast = tested on: BT-549 breast
HOP-92 NSCLC = tested on: HOP-92 NSCLC
CCRF-CEM leukemia = tested on: CCRF-CEM leukemia
NCI-H522 lung = tested on: NCI-H522 lung
SNB-19 CNS = tested on: SNB-19 CNS
SK-MEL-2 melanoma = tested on: SK-MEL-2 melanoma
HS 578T breast = tested on: HS 578T breast
SF-295 CNS = tested on: SF-295 CNS
NCI-H460 lung = tested on: NCI-H460 lung
SK-OV-3 ovarian = tested on: SK-OV-3 ovarian
IGROV1 ovarian = tested on: IGROV1 ovarian
MDA-MB-435 = tested on: MDA-MB-435
K-562 leukemia = tested on: K-562 leukemia
MDA-N = tested on: MDA-N
DU-145 prostate = tested on: DU-145 prostate
TK-10 renal = tested on: TK-10 renal
A549 NSCLC = tested on: A549 NSCLC
CAKI-1 renal = tested on: CAKI-1 renal
NCI/ADR-RES ovarian = tested on: NCI/ADR-RES ovarian
EKVX NSCLC = tested on: EKVX NSCLC
OVCAR-8 ovarian = tested on: OVCAR-8 ovarian
SF-539 CNS = tested on: SF-539 CNS
OVCAR-4 ovarian = tested on: OVCAR-4 ovarian
786-0 renal = tested on: 786-0 renal
SF-268 CNS = tested on: SF-268 CNS
RPMI-8226 leukemia = tested on: RPMI-8226 leukemia
OVCAR-3 ovarian = tested on: OVCAR-3 ovarian
UACC-257 melanoma = tested on: UACC-257 melanoma
OVCAR-5 ovarian = tested on: OVCAR-5 ovarian
HCC-2998 colon = tested on: HCC-2998 colon
UACC-62 melanoma = tested on: UACC-62 melanoma
ACHN renal = tested on: ACHN renal
MDA-MB-231 breast = tested on: MDA-MB-231 breast
SW-620 colon = tested on: SW-620 colon
HL-60(TB) leukemia = tested on: HL-60(TB) leukemia
A498 renal = tested on: A498 renal
M14 melanoma = tested on: M14 melanoma
SK-MEL-28 melanoma = tested on: SK-MEL-28 melanoma
UO-31 renal = tested on: UO-31 renal
SR leukemia = tested on: SR leukemia
NCI-H23 lung = tested on: NCI-H23 lung
SN12C renal = tested on: SN12C renal
MCF7 breast = tested on: MCF7 breast
SK-MEL-5 melanoma = tested on: SK-MEL-5 melanoma
NCI-H226 lung = tested on: NCI-H226 lung
MOLT-4 leukemia = tested on: MOLT-4 leukemia
KM12 colon = tested on: KM12 colon
U251 CNS = tested on: U251 CNS
COLO 205 colon = tested on: COLO 205 colon
PC-3 prostate = tested on: PC-3 prostate
SNB-75 CNS = tested on: SNB-75 CNS
HOP-62 NSCLC = tested on: HOP-62 NSCLC
MALME-3M melanoma = tested on: MALME-3M melanoma
T-47D breast = tested on: T-47D breast

COc1cc(C2SCC(=O)N2c2cc(Cl)c(Cl)cc2Cl)cc(OC)c1OC (configuration not stated)
TGI (LOX IMVI melanoma): > 100 µM | TGI (HCT-116 colon): > 100 µM | TGI (HT29 colon): > 100 µM | TGI (HCT-15 colon): > 100 µM | TGI (BT-549 breast): 64.7 µM | TGI (HOP-92 NSCLC): > 100 µM | TGI (CCRF-CEM leukemia): 77.6 µM | TGI (NCI-H522 lung): > 100 µM | TGI (SNB-19 CNS): > 100 µM | TGI (SK-MEL-2 melanoma): > 100 µM | TGI (HS 578T breast): > 100 µM | TGI (SF-295 CNS): > 100 µM | TGI (NCI-H460 lung): > 100 µM | TGI (SK-OV-3 ovarian): > 100 µM | TGI (IGROV1 ovarian): > 100 µM | TGI (MDA-MB-435): > 100 µM | TGI (K-562 leukemia): > 100 µM | TGI (MDA-N): 95.4 µM | TGI (DU-145 prostate): > 100 µM | TGI (TK-10 renal): > 100 µM | TGI (A549 NSCLC): > 100 µM | TGI (CAKI-1 renal): > 100 µM | TGI (NCI/ADR-RES ovarian): > 100 µM | TGI (EKVX NSCLC): > 100 µM | TGI (OVCAR-8 ovarian): > 100 µM | TGI (SF-539 CNS): > 100 µM | TGI (OVCAR-4 ovarian): > 100 µM | TGI (786-0 renal): > 100 µM | TGI (SF-268 CNS): > 100 µM | TGI (RPMI-8226 leukemia): 89.7 µM | TGI (OVCAR-3 ovarian): > 100 µM | TGI (UACC-257 melanoma): > 100 µM | TGI (OVCAR-5 ovarian): > 100 µM | TGI (HCC-2998 colon): > 100 µM | TGI (UACC-62 melanoma): 97.6 µM | TGI (ACHN renal): > 100 µM | TGI (MDA-MB-231 breast): > 100 µM | TGI (SW-620 colon): > 100 µM | TGI (HL-60(TB) leukemia): > 100 µM | TGI (A498 renal): > 100 µM | TGI (M14 melanoma): > 100 µM | TGI (SK-MEL-28 melanoma): > 100 µM | TGI (UO-31 renal): > 100 µM | TGI (SR leukemia): 84.3 µM | TGI (NCI-H23 lung): > 100 µM | TGI (SN12C renal): > 100 µM | TGI (MCF7 breast): > 100 µM | TGI (SK-MEL-5 melanoma): > 100 µM | TGI (NCI-H226 lung): > 100 µM | TGI (MOLT-4 leukemia): > 100 µM | TGI (KM12 colon): > 100 µM | TGI (U251 CNS): > 100 µM | TGI (COLO 205 colon): > 100 µM | TGI (PC-3 prostate): > 100 µM

C=C(C)C(=O)O[C@H]1C/C(CO)=C/CCC(=C)C(OC(C)=O)[C@H]2OC(=O)C(=C)[C@H]12 (some centres not stated)
TGI (LOX IMVI melanoma): 27 µM | TGI (HCT-116 colon): 13.7 µM | TGI (HT29 colon): 21.7 µM | TGI (HCT-15 colon): 33.6 µM | TGI (BT-549 breast): 12.1 µM | TGI (CCRF-CEM leukemia): 6.2 µM | TGI (NCI-H522 lung): 11 µM | TGI (SNB-19 CNS): > 100 µM | TGI (SK-MEL-2 melanoma): 35.6 µM | TGI (HS 578T breast): > 100 µM | TGI (SF-295 CNS): 91.4 µM | TGI (NCI-H460 lung): 41.7 µM | TGI (SNB-75 CNS): 9.12 µM | TGI (SK-OV-3 ovarian): > 100 µM | TGI (IGROV1 ovarian): 48.2 µM | TGI (HOP-62 NSCLC): 73.8 µM | TGI (MDA-MB-435): 17.8 µM | TGI (K-562 leukemia): 11.7 µM | TGI (MDA-N): 19.1 µM | TGI (DU-145 prostate): 37.4 µM | TGI (A549 NSCLC): 55.8 µM | TGI (CAKI-1 renal): 21.5 µM | TGI (NCI/ADR-RES ovarian): 61.2 µM | TGI (OVCAR-8 ovarian): 39.8 µM | TGI (SF-539 CNS): 33.6 µM | TGI (786-0 renal): 12.8 µM | TGI (SF-268 CNS): 10.9 µM | TGI (RPMI-8226 leukemia): 19.3 µM | TGI (MALME-3M melanoma): 26.7 µM | TGI (OVCAR-3 ovarian): 18.7 µM | TGI (UACC-257 melanoma): 24.8 µM | TGI (OVCAR-5 ovarian): 88.7 µM | TGI (HCC-2998 colon): 32 µM | TGI (UACC-62 melanoma): 23 µM | TGI (ACHN renal): 22.9 µM | TGI (MDA-MB-231 breast): 25.4 µM | TGI (SW-620 colon): 74.2 µM | TGI (A498 renal): 43 µM | TGI (M14 melanoma): 12.5 µM | TGI (SK-MEL-28 melanoma): 20.6 µM | TGI (UO-31 renal): 17.7 µM | TGI (SR leukemia): 17.5 µM | TGI (NCI-H23 lung): 25 µM | TGI (SN12C renal): 30.8 µM | TGI (MCF7 breast): 22.3 µM | TGI (T-47D breast): 28 µM | TGI (SK-MEL-5 melanoma): 28.3 µM | TGI (NCI-H226 lung): > 100 µM | TGI (MOLT-4 leukemia): 17.2 µM | TGI (KM12 colon): 33.3 µM | TGI (U251 CNS): 35.8 µM | TGI (COLO 205 colon): 15.7 µM | TGI (PC-3 prostate): 58.9 µM
